# In patent publication US11395857B2, “Radiolabeled melanocortin 1 receptor-specific alpha-melanocyte-stimulating hormone analogues for imaging or therapy” (PROVINCIAL HEALTH SERVICES AUTHORITY, priority 2018, dated 2022):
# Where two headings read alike, the source gives them in different places.
# Experiments:
# B16F10 mouse melanoma = assay: Biodistribution of 177Lu-labeled αMSH analogues in mice bearing B16F10 mouse melanoma; assay type: in vivo, C57BL/6J mice; conditions: C57BL/6J mice, B16F10 melanoma
# Protocol: (§1) The B16-F10 mouse melanoma cells were cultured and inoculated in mice as described in Example 1.
# (§2) For biodistribution studies, approximately 1-2 MBq of ^177Lu-labeled αMSH analogues via tail vein under anesthesia. At 1, 4, 24, and 120 h p.i., the mice were euthanized by CO2 inhalation. Organs/tissues were harvested and the radioactivity was measured as described in Example 1.
# [1] = as above; assay type: in vivo, C57BL/6J mice; conditions: mouse, iv, total radioactivity, C57BL/6J mice, B16F10 melanoma
# Protocol: as §1, §2
compound,measurement,setting,value
"CCCC[C@H](NC(=O)CN1CCC(NC(=O)[C@H](CCCCNC(=O)CN2CCN(CC(=O)O)CCN(CC(=O)O)CCN(CC(=O)O)CC2)NC(=O)[C@H](CCC(=O)O)NC(=O)CCCc2ccc(I)cc2)CC1)C(=O)N[C@H]1CC(=O)NCCCC[C@@H](C(N)=O)NC(=O)[C@H](Cc2c[nH]c3ccccc23)NC(=O)[C@H](CCCNC(=N)N)NC(=O)[C@@H](Cc2ccccc2)NC(=O)[C@H](Cc2c[nH]cn2)NC1=O [^177Lu-labeled CCZ01082, metal not drawn]","Biodistribution, B16F10 tumour",B16F10 mouse melanoma; 1 h p.i.,13.3 ± 3.34 % ID/g
same,"Biodistribution, B16F10 tumour",B16F10 mouse melanoma; 4 h p.i.,20.8 ± 5.37 % ID/g
same,"Biodistribution, B16F10 tumour",B16F10 mouse melanoma; 24 h p.i.,7.59 ± 1.70 % ID/g
same,"Biodistribution, B16F10 tumour",B16F10 mouse melanoma; 120 h p.i.,0.79 ± 0.39 % ID/g
same,tissue uptake at 1 h,"[1]; male, seminal glands, 1 h p.i., read-out: Biodistribution, Seminal glands",0.48 ± 0.13 %ID/g
same,tissue uptake at 4 h,"[1]; male, seminal glands, 4 h p.i., read-out: Biodistribution, Seminal glands",0.32 ± 0.15 %ID/g
same,tissue uptake at 24 h,"[1]; male, seminal glands, 24 h p.i., read-out: Biodistribution, Seminal glands",0.1 ± 0.04 %ID/g
same,tissue uptake at 120 h,"[1]; male, seminal glands, 120 h p.i., read-out: Biodistribution, Seminal glands",0.04 ± 0.02 %ID/g
same,tissue uptake at 1 h,"[1]; male, testes, 1 h p.i., read-out: Biodistribution, Testes",1.3 ± 0.4 %ID/g
same,tissue uptake at 4 h,"[1]; male, testes, 4 h p.i., read-out: Biodistribution, Testes",0.75 ± 0.26 %ID/g
same,tissue uptake at 24 h,"[1]; male, testes, 24 h p.i., read-out: Biodistribution, Testes",0.32 ± 0.17 %ID/g
same,tissue uptake at 120 h,"[1]; male, testes, 120 h p.i., read-out: Biodistribution, Testes",0.2 ± 0.11 %ID/g
same,tissue uptake at 1 h,"[1]; adrenal glands, 1 h p.i., read-out: Biodistribution, Adrenal glands",2.62 ± 1.48 %ID/g
same,tissue uptake at 4 h,"[1]; adrenal glands, 4 h p.i., read-out: Biodistribution, Adrenal glands",1.31 ± 0.56 %ID/g
same,tissue uptake at 24 h,"[1]; adrenal glands, 24 h p.i., read-out: Biodistribution, Adrenal glands",0.41 ± 0.35 %ID/g
same,tissue uptake at 120 h,"[1]; adrenal glands, 120 h p.i., read-out: Biodistribution, Adrenal glands",0.33 ± 0.23 %ID/g
same,tissue uptake at 1 h,"[1]; blood, 1 h p.i., read-out: Biodistribution, Blood",8.32 ± 2.74 %ID/g
same,tissue uptake at 4 h,"[1]; blood, 4 h p.i., read-out: Biodistribution, Blood",2.82 ± 1.17 %ID/g
same,tissue uptake at 24 h,"[1]; blood, 24 h p.i., read-out: Biodistribution, Blood",0.33 ± 0.57 %ID/g
same,tissue uptake at 120 h,"[1]; blood, 120 h p.i., read-out: Biodistribution, Blood",0.03 ± 0.04 %ID/g
same,tissue uptake at 1 h,"[1]; bone, 1 h p.i., read-out: Biodistribution, Bone",0.84 ± 0.19 %ID/g
same,tissue uptake at 4 h,"[1]; bone, 4 h p.i., read-out: Biodistribution, Bone",0.51 ± 0.11 %ID/g
same,tissue uptake at 24 h,"[1]; bone, 24 h p.i., read-out: Biodistribution, Bone",0.31 ± 0.08 %ID/g
same,tissue uptake at 120 h,"[1]; bone, 120 h p.i., read-out: Biodistribution, Bone",0.17 ± 0.07 %ID/g
same,tissue uptake at 1 h,"[1]; brain, 1 h p.i., read-out: Biodistribution, Brain",0.13 ± 0.03 %ID/g
same,tissue uptake at 4 h,"[1]; brain, 4 h p.i., read-out: Biodistribution, Brain",0.06 ± 0.02 %ID/g
same,tissue uptake at 24 h,"[1]; brain, 24 h p.i., read-out: Biodistribution, Brain",0.01 ± 0.02 %ID/g
same,tissue uptake at 120 h,"[1]; brain, 120 h p.i., read-out: Biodistribution, Brain",0.01 ± 0.01 %ID/g
same,tissue uptake at 1 h,"[1]; fat, 1 h p.i., read-out: Biodistribution, Fat",0.61 ± 0.23 %ID/g
same,tissue uptake at 4 h,"[1]; fat, 4 h p.i., read-out: Biodistribution, Fat",0.39 ± 0.12 %ID/g
same,tissue uptake at 24 h,"[1]; fat, 24 h p.i., read-out: Biodistribution, Fat",0.1 ± 0.13 %ID/g
same,tissue uptake at 120 h,"[1]; fat, 120 h p.i., read-out: Biodistribution, Fat",0.05 ± 0.05 %ID/g
same,tissue uptake at 1 h,"[1]; heart, 1 h p.i., read-out: Biodistribution, Heart",2.03 ± 0.68 %ID/g
same,tissue uptake at 4 h,"[1]; heart, 4 h p.i., read-out: Biodistribution, Heart",0.8 ± 0.32 %ID/g
same,tissue uptake at 24 h,"[1]; heart, 24 h p.i., read-out: Biodistribution, Heart",0.18 ± 0.17 %ID/g
same,tissue uptake at 120 h,"[1]; heart, 120 h p.i., read-out: Biodistribution, Heart",0.09 ± 0.04 %ID/g
same,tissue uptake at 1 h,"[1]; intestine, 1 h p.i., read-out: Biodistribution, Intestine",1.34 ± 0.28 %ID/g
same,tissue uptake at 4 h,"[1]; intestine, 4 h p.i., read-out: Biodistribution, Intestine",2.91 ± 4.94 %ID/g
same,tissue uptake at 24 h,"[1]; intestine, 24 h p.i., read-out: Biodistribution, Intestine",0.43 ± 0.32 %ID/g
same,tissue uptake at 120 h,"[1]; intestine, 120 h p.i., read-out: Biodistribution, Intestine",0.08 ± 0.07 %ID/g
same,tissue uptake at 1 h,"[1]; kidneys, 1 h p.i., read-out: Biodistribution, Kidneys",11.7 ± 5.52 %ID/g
same,tissue uptake at 4 h,"[1]; kidneys, 4 h p.i., read-out: Biodistribution, Kidneys",11.6 ± 5.03 %ID/g
same,tissue uptake at 24 h,"[1]; kidneys, 24 h p.i., read-out: Biodistribution, Kidneys",8.63 ± 6.4 %ID/g
same,tissue uptake at 120 h,"[1]; kidneys, 120 h p.i., read-out: Biodistribution, Kidneys",1.98 ± 0.72 %ID/g
same,tissue uptake at 1 h,"[1]; liver, 1 h p.i., read-out: Biodistribution, Liver",3.45 ± 0.31 %ID/g
same,tissue uptake at 4 h,"[1]; liver, 4 h p.i., read-out: Biodistribution, Liver",3.83 ± 0.28 %ID/g
same,tissue uptake at 24 h,"[1]; liver, 24 h p.i., read-out: Biodistribution, Liver",2.41 ± 0.34 %ID/g
same,tissue uptake at 120 h,"[1]; liver, 120 h p.i., read-out: Biodistribution, Liver",0.9 ± 0.12 %ID/g
same,tissue uptake at 1 h,"[1]; lungs, 1 h p.i., read-out: Biodistribution, Lungs",5.11 ± 2.81 %ID/g
same,tissue uptake at 4 h,"[1]; lungs, 4 h p.i., read-out: Biodistribution, Lungs",2.46 ± 0.54 %ID/g
same,tissue uptake at 24 h,"[1]; lungs, 24 h p.i., read-out: Biodistribution, Lungs",0.42 ± 0.34 %ID/g
same,tissue uptake at 120 h,"[1]; lungs, 120 h p.i., read-out: Biodistribution, Lungs",0.54 ± 0.87 %ID/g
same,tissue uptake at 1 h,"[1]; muscle, 1 h p.i., read-out: Biodistribution, Muscle",0.79 ± 0.22 %ID/g
same,tissue uptake at 4 h,"[1]; muscle, 4 h p.i., read-out: Biodistribution, Muscle",0.39 ± 0.1 %ID/g
same,tissue uptake at 24 h,"[1]; muscle, 24 h p.i., read-out: Biodistribution, Muscle",0.06 ± 0.05 %ID/g
same,tissue uptake at 120 h,"[1]; muscle, 120 h p.i., read-out: Biodistribution, Muscle",0.03 ± 0.02 %ID/g
same,tissue uptake at 1 h,"[1]; pancreas, 1 h p.i., read-out: Biodistribution, Pancreas",1.14 ± 0.32 %ID/g
same,tissue uptake at 4 h,"[1]; pancreas, 4 h p.i., read-out: Biodistribution, Pancreas",0.52 ± 0.27 %ID/g
same,tissue uptake at 24 h,"[1]; pancreas, 24 h p.i., read-out: Biodistribution, Pancreas",0.17 ± 0.19 %ID/g
same,tissue uptake at 120 h,"[1]; pancreas, 120 h p.i., read-out: Biodistribution, Pancreas",0.09 ± 0.05 %ID/g
same,tissue uptake at 1 h,"[1]; spleen, 1 h p.i., read-out: Biodistribution, Spleen",2.1 ± 1.03 %ID/g
same,tissue uptake at 4 h,"[1]; spleen, 4 h p.i., read-out: Biodistribution, Spleen",1.46 ± 0.67 %ID/g
same,tissue uptake at 24 h,"[1]; spleen, 24 h p.i., read-out: Biodistribution, Spleen",1.05 ± 0.45 %ID/g
same,tissue uptake at 120 h,"[1]; spleen, 120 h p.i., read-out: Biodistribution, Spleen",0.65 ± 0.34 %ID/g
same,tissue uptake at 1 h,"[1]; stomach, 1 h p.i., read-out: Biodistribution, Stomach",0.89 ± 0.5 %ID/g
same,tissue uptake at 4 h,"[1]; stomach, 4 h p.i., read-out: Biodistribution, Stomach",1.65 ± 2.22 %ID/g
same,tissue uptake at 24 h,"[1]; stomach, 24 h p.i., read-out: Biodistribution, Stomach",1.17 ± 0.77 %ID/g
same,tissue uptake at 120 h,"[1]; stomach, 120 h p.i., read-out: Biodistribution, Stomach",0.19 ± 0.21 %ID/g
same,tissue uptake at 1 h,"[1]; thyroid, 1 h p.i., read-out: Biodistribution, Thyroid",3.41 ± 0.51 %ID/g
same,tissue uptake at 4 h,"[1]; thyroid, 4 h p.i., read-out: Biodistribution, Thyroid",3.86 ± 0.39 %ID/g
same,tissue uptake at 24 h,"[1]; thyroid, 24 h p.i., read-out: Biodistribution, Thyroid",4.03 ± 1.33 %ID/g
same,tissue uptake at 120 h,"[1]; thyroid, 120 h p.i., read-out: Biodistribution, Thyroid",0.86 ± 0.31 %ID/g
same,tissue to tissue ratio at 1 h,"[1]; tumour/blood, 1 h p.i., read-out: Tumour/blood",1.82 ± 0.82
same,tissue to tissue ratio at 4 h,"[1]; tumour/blood, 4 h p.i., read-out: Tumour/blood",8.59 ± 4.19
same,tissue to tissue ratio at 24 h,"[1]; tumour/blood, 24 h p.i., read-out: Tumour/blood",87.6 ± 47.8
same,tissue to tissue ratio at 120 h,"[1]; tumour/blood, 120 h p.i., read-out: Tumour/blood",52.9 ± 41.3
same,tissue to tissue ratio at 1 h,"[1]; tumour/kidney, 1 h p.i., read-out: Tumour/kidney",1.41 ± 0.71
same,tissue to tissue ratio at 4 h,"[1]; tumour/kidney, 4 h p.i., read-out: Tumour/kidney",2.05 ± 0.86
same,tissue to tissue ratio at 24 h,"[1]; tumour/kidney, 24 h p.i., read-out: Tumour/kidney",1.14 ± 0.5
same,tissue to tissue ratio at 120 h,"[1]; tumour/kidney, 120 h p.i., read-out: Tumour/kidney",0.42 ± 0.18
same,tissue to tissue ratio at 1 h,"[1]; tumour/muscle, 1 h p.i., read-out: Tumour/muscle",18.7 ± 8.13
same,tissue to tissue ratio at 4 h,"[1]; tumour/muscle, 4 h p.i., read-out: Tumour/muscle",57.7 ± 22.4
same,tissue to tissue ratio at 24 h,"[1]; tumour/muscle, 24 h p.i., read-out: Tumour/muscle",167 ± 88.7
same,tissue to tissue ratio at 120 h,"[1]; tumour/muscle, 120 h p.i., read-out: Tumour/muscle",38.9 ± 24
same,excreta dose per gram or mL at 1 h,"[1]; urine, 1 h p.i.",87.9 ± 48.2 %ID/g
same,excreta dose per gram or mL at 4 h,"[1]; urine, 4 h p.i.",113 ± 29.4 %ID/g
same,excreta dose per gram or mL at 24 h,"[1]; urine, 24 h p.i.",6.11 ± 1.66 %ID/g
same,excreta dose per gram or mL at 120 h,"[1]; urine, 120 h p.i.",1.21 ± 0.21 %ID/g
